Laboratory results published in US12558348B2, “Bioactive phytochemicals” (Phytoquest Limited, priority 2019, dated 2026).
Marks after values point to notes of the source that are not given here.

Key:
[1] = system: sialidase (including NanH from T. forsythia); assay: Sialidase assay with methylumbelliferyl-N-acetylneuraminic acid; format: biochemical
Protocol: Sialidase assays used 2.8 mM and 0.28 mM inhibitor (or water without inhibitor) and 2.5 nM sialidase (including NanH from T. forsythia) incubated in the presence of 0.1 mM methylumbelliferyl-N-acetyineuraminic acid, pH 7.2 in 20 mM sodium phosphate buffer. Reactions were stopped at 30 seconds and 60 seconds via addition of pH 10.5 60 mM sodium carbonate buffer. Release of fluorogenic methylumbelliferone (MU) was quantified by measuring fluorescence emission at 450 nm, excitation 350 nm. Percentage sialidase activity was expressed as the change in fluorescence between 30 seconds and 60 seconds compared to that of a reaction without inhibitor. Reactions were carried out in triplicate.

[2] = system: sialidase in human THP-1 (monocyte-like) cell cultures; assay: Endogenous (lysosomal) sialidase activity in LPS-stimulated THP-1 cells; format: cell-based; settings: for RFU / Sialidase activity/mg protein: 2 hrs then 16 hours LPS; for Relative sialidase activity/mg protein: 16 hours LPS, relative to LPS control = 1.00
Protocol: The THP-1 cells were cultured in RPMI media supplemented with mercaptoethanol & glutamine to get 80% confluence in culture flask, then aspirated and centrifuged at 1500 rpm for 5 mins. The cell pellet was then resuspended in 1 ml of RPMI complete media and counted conventionally using a Hemocytometer. The cells (5×106) were incubated with PMA (10 ng/ml) in separate dishes to differentiate THP-1 cells. […] […] Post incubation, the cells were used to determine the sialidase activity.
The THP-1 cells were washed with phosphate-buffered saline (PBS) and resuspended in ice-cold buffer containing 0.25 M sucrose, 1 mM EDTA, and 0.2 mM phenylmethylsulfonyl fluoride. The cell suspension was sonicated on ice for 15 s on a low setting (6% amplitude) (Vibracell™; Sonics and Materials Inc., Newtown, CT) followed by centrifugation at 25,000 g for 15 min at 4° C. The resulting supernatant was used to determine the lysosomal sialidase activity. Protein quantification of the supernatant was performed using the Bio-Rad protein determination kit as described above. For the determination of lysosomal sialidase activity, 200 μg of total protein was mixed with 40 nmol of 4-methylumbelliferyl-α-N-acetyl-D-neuraminic acid (Sigma), the lysosomal sialidase-specific substrate, 10 μmol sodium acetate buffer, pH 4.6, and 200 μg of bovine serum albumin in a total volume of 200 μl. The sialidase reaction was allowed to proceed for 1 h at 37° C. and was terminated by the addition of 0.25 M glycine NaOH, pH 10.4. Released 4-methylumbelliferone was measured fluorometrically (Synergy 2 multimode microplate reader) at an excitation wavelength of 365 nm and emission wavelength of 448 nm.

[3] = system: IL-10; assay: IL-10 ELISA in LPS stimulated THP-1 cells; format: cell-based, human; settings: for Fold increase in IL-10 levels: vs control = 1.00
Protocol: The cells in an 80% confluence culture flask were aspirated and centrifuged at 1500 rpm for 5 mins. The cell pellet was then resuspended in 1 ml of RPMI complete media and 1×10^5 cells/well seeded to each well of the 96 well microtiter plate. After 24 hrs incubation, PMA (10 ng/ml) was added to the 96 well plate to differentiate THP-1 cells to determine the TNF-α production, THP-1 cells were pretreated for 1 hr with idoBR1 or cucumber extract-Q-actin (batch no. […] Post incubation, the cell supernatant from each of the wells was aspirated into sterile micro centrifuge tubes and centrifuged at 1000 rpm for 2-3 mins. The cell supernatant was then used for evaluation of presence of cytokines using ELISA.
ELISA plates coated with antibodies for IL-12, IL-1β, or IL-10 (R&D Systems, USA) were used for the following study. To each well 50 μL of Assay Diluent RD1F was added after mixing well. 200 μL of sample (idoBR1 or extract), or control per well was added and covered with an adhesive strip. Following incubation for 2 hours at room temperature each well was aspirated and washed 4 times with Wash Buffer (400 μl). After the last wash, any remaining Wash Buffer was removed by aspirating or decanting. The plates were inverted and blotted against clean paper towels. To each well 200 μl of appropriate human conjugate was added and these then covered with a new adhesive strip and incubated for 1 hour at room temperature. The aspiration/wash was then repeated. 200 μL of Substrate Solution was then added to each well and further incubated for 20 minutes at room temperature protected from light. 50 μL of Stop Solution was added to each well. The colour in the wells was changed from blue to yellow. OD was measured within 30 minutes at 450 nm.

[4] = system: murine microglial cell line BV-2; assay: Nitrite production by LPS-stimulated BV-2 microglial cells; format: cell-based; settings: 24 hours
Protocol: idoBR1 was used in cell cultures of murine microglial cell line BV-2 at 0, 20, 40 and 80 μg/ml plus and minus sub-optimal LPS. Production of TNF-α and nitrite was measured after 24 hours.

O=C(O)[C@@H]1NC[C@H](O)[C@@H](O)[C@@H]1O [idoBR1, (2R,3R,4R,5S)-3,4,5-trihydroxypiperidine-2-carboxylic acid]
inhibition of the sialidase ([1]; 0.28 mM inhibitor): 42%
inhibition of the sialidase ([1]; 2.8 mM inhibitor): 36%
Sialidase activity/mg of protein ([2]; 12.5 μg/mL + LPS, 4 hours): 91.30
Sialidase activity/mg of protein ([2]; 12.5 μg/mL + LPS, 8 hours): 129.95
Sialidase activity/mg of protein ([2]; 12.5 μg/mL + LPS, 16 hours): 186.34
Sialidase activity/mg of protein ([2]; 12.5 μg/mL + LPS, 24 hours): 108.47
RFU ([2]; 12.5 μg/ml): 1610 RFU
Sialidase activity/mg protein ([2]; 12.5 μg/ml): 186.34
Relative sialidase activity/mg protein ([2]; 12.5 μg/ml): 0.89
Sialidase activity/mg of protein ([2]; 25 μg/mL + LPS, 4 hours): 86.48
Sialidase activity/mg of protein ([2]; 25 μg/mL + LPS, 8 hours): 121.84
Sialidase activity/mg of protein ([2]; 25 μg/mL + LPS, 16 hours): 178.24
Sialidase activity/mg of protein ([2]; 25 μg/mL + LPS, 24 hours): 103.85
RFU ([2]; 25 μg/ml): 1540 RFU
Sialidase activity/mg protein ([2]; 25 μg/ml): 178.24
Relative sialidase activity/mg protein ([2]; 25 μg/ml): 0.86
Sialidase activity/mg of protein ([2]; 50 μg/mL + LPS, 4 hours): 79.35
Sialidase activity/mg of protein ([2]; 50 μg/mL + LPS, 8 hours): 109.77
Sialidase activity/mg of protein ([2]; 50 μg/mL + LPS, 16 hours): 130.21
Sialidase activity/mg of protein ([2]; 50 μg/mL + LPS, 24 hours): 88.83
RFU ([2]; 50 μg/ml): 1125 RFU
Sialidase activity/mg protein ([2]; 50 μg/ml): 130.21
Relative sialidase activity/mg protein ([2]; 50 μg/ml): 0.63
Sialidase activity/mg of protein ([2]; 100 μg/mL + LPS, 4 hours): 72.15
Sialidase activity/mg of protein ([2]; 100 μg/mL + LPS, 8 hours): 99.32
Sialidase activity/mg of protein ([2]; 100 μg/mL + LPS, 16 hours): 115.16
Sialidase activity/mg of protein ([2]; 100 μg/mL + LPS, 24 hours): 78.66
RFU ([2]; 100 μg/ml): 995 RFU
Sialidase activity/mg protein ([2]; 100 μg/ml): 115.16
Relative sialidase activity/mg protein ([2]; 100 μg/ml): 0.55
IL-10 ([3]; 12.5 μg/mL): 19.02 pg/mL
Fold increase in IL-10 levels ([3]; 12.5 μg/mL): 1.34 fold
IL-10 ([3]; 25 μg/mL): 29.34 pg/mL
Fold increase in IL-10 levels ([3]; 25 μg/mL): 2.07 fold
IL-10 ([3]; 50 μg/mL): 37.22 pg/mL
Fold increase in IL-10 levels ([3]; 50 μg/mL): 2.63 fold
IL-10 ([3]; 100 μg/mL): 43.08 pg/mL
Fold increase in IL-10 levels ([3]; 100 μg/mL): 3.04 fold
Nitrite production ([4]; 20 μg/ml + LPS): 11* μM
Nitrite production ([4]; 40 μg/ml + LPS): 9** μM
Nitrite production ([4]; 80 μg/ml + LPS): 8** μM
